Data from US20130096067A1, “DROSOPHILA TUMOR STEM CELL MODEL AND USES THEREOF” (priority 2011, published 2013).

Test system: Raf-1^gof intestinal tumors
Settings: assessed three days later; for Log2 (fold) of luciferase activity relative to DMSO controls / Fold (luciferase activity relative to DMSO controls): ICCB compounds fed in vials to flies with one-day old Raf-1^gof tumors; for Fold (luciferase activity relative to DMSO controls) / Fold (luciferase activity, fold difference relative to DMSO controls): averaged from multiple wells; for Log2 (fold) (luciferase activity, log2 of the fold difference relative to DMSO controls) / Fold (luciferase activity, fold difference relative to DMSO controls): screen of 480 ICCB compounds in vials, compounds fed to flies with one-day old Raf-1^gof tumors, esg-Gal4 luciferase
Also: test concentration or dose not given here.

Molecule	Log2 (fold) of luciferase activity relative to DMSO controls	Fold (luciferase activity relative to DMSO controls) [fold]	Log2 (fold) (luciferase activity, log2 of the fold difference relative to DMSO controls)	Fold (luciferase activity, fold difference relative to DMSO controls)
CCCCCCCCCCOCCC(=O)O [4-OXATETRADECANOIC ACID]	0.004	1.003		
N#CC(C#N)=Cc1ccc([N+](=O)[O-])c(O)c1 [tyrphostin AG-126]	−0.085	0.943		
CCC(C)[C@H](NS(=O)(=O)c1cccc2ccccc12)C(=O)N[C@H](C=O)Cc1c[nH]c2ccccc12 (stereo partly drawn) [NapSul-Ile-Trp-CHO]			−0.554	0.681
CCOC(=O)C1=C(C)NC(=S)NC1c1cccc(O)c1 (stereo not shown) [Monastrol]			−0.607	0.656
CC1=NS(=O)(=O)c2cc(Cl)ccc2N1 [DIAZOXIDE]			−0.257	0.837
CC(=O)c1c(O)c(C)c(O)c(Cc2c(O)c3c(c(C(=O)/C=C/c4ccccc4)c2O)OC(C)(C)C=C3)c1O [Rottlerin]			−0.865	0.549
CC/C=C\C/C=C\C/C=C\C/C=C\C/C=C\CCCC(=O)O [EICOSAPENTAENOIC ACID (20:5 n-3)]	0.024	1.017		
CCCCC[C@H](O)/C=C/[C@H]1C=CC(=O)[C@@H]1C/C=C\CCCC(=O)O [PROSTAGLANDIN A2]			−0.295	0.815
CCCCCCCCCCC1=C(C)C(=O)C(OC)=C(OC)C1=O [Decylubiquinone]			−0.442	0.736
CCCCC[C@H](O)/C=C/C=C\C=C\C=C\[C@@H](O)[C@@H](O)CCCC(=O)O [LIPOXIN A4]	0.046	1.033		
N#CC(=C(/N)Sc1ccccc1N)/C(C#N)=C(/N)Sc1ccccc1N [U-0126]	−0.023	0.984		
CCCOc1ccccc1-c1nc2nn[nH]c2c(=O)[nH]1 [zaprinast]	−0.055	0.962		
N#CC(=Cc1ccc2[nH]ccc2c1)C(N)=C(C#N)C#N [AG-370]			−0.559	0.679
O=C(/C=C/c1ccc(O)c(O)c1)OCCc1ccccc1 [CAPE]			−0.324	0.799
LYSOPHOSPHATIDIC ACID			−0.509	0.703
O=S(=O)(c1cccc2c(I)cccc12)N1CCCNCC1 [ML7]	0.192	1.143		
LY-83583			−0.465	0.725
CC(=O)C1=C(O)[C@@H]2[C@H]3c4c[nH]c5cccc(c45)C[C@H]3C(C)(C)N2C1=O [CYCLOPIAZONIC ACID]	0.072	1.051		
CCCCC/C=C\C/C=C\C/C=C\C/C=C\CCCC(=O)OC(CO)COCCCCCCCCCCCCCCCC (stereo not shown) [1-HEXADECYL-2-ARACHIDONOYL-GLYCEROL]			−0.379	0.769
CCCCC[C@H](O)/C=C/[C@@H]1[C@@H](C/C=C\CCCC(=O)O)[C@H](O)C[C@H]1O [9b,11a-PROSTAGLANDIN F2]	0.062	1.044		
